Test results reported in patent US20250122223A1, “HETEROCYCLIC COMPOUNDS AS UBIQUITIN SPECIFIC PROTEASE 7 INHIBITORS” (ALMAC DISCOVERY LIMITED, priority 2022, published 2025).
Where two headings read alike, the source gives them in different places.

Biological target: USP7 (Homo sapiens (Human), UniProt Q93009)
Assay: USP7 fluorescence polarisation (FP) assay with ubiquitin-Lys-TAMRA substrate
Format: biochemical
Conditions: biochemical inhibition
[1] = read-out: USP7 IC50 activity (Table 3a, classes)
[2] = unit not given in Table 3b (Table 1 and key of Table 3a use μM), read-out: USP7 IC50 activity (Table 3b)

Sequence of USP7 (Q93009 whole entry): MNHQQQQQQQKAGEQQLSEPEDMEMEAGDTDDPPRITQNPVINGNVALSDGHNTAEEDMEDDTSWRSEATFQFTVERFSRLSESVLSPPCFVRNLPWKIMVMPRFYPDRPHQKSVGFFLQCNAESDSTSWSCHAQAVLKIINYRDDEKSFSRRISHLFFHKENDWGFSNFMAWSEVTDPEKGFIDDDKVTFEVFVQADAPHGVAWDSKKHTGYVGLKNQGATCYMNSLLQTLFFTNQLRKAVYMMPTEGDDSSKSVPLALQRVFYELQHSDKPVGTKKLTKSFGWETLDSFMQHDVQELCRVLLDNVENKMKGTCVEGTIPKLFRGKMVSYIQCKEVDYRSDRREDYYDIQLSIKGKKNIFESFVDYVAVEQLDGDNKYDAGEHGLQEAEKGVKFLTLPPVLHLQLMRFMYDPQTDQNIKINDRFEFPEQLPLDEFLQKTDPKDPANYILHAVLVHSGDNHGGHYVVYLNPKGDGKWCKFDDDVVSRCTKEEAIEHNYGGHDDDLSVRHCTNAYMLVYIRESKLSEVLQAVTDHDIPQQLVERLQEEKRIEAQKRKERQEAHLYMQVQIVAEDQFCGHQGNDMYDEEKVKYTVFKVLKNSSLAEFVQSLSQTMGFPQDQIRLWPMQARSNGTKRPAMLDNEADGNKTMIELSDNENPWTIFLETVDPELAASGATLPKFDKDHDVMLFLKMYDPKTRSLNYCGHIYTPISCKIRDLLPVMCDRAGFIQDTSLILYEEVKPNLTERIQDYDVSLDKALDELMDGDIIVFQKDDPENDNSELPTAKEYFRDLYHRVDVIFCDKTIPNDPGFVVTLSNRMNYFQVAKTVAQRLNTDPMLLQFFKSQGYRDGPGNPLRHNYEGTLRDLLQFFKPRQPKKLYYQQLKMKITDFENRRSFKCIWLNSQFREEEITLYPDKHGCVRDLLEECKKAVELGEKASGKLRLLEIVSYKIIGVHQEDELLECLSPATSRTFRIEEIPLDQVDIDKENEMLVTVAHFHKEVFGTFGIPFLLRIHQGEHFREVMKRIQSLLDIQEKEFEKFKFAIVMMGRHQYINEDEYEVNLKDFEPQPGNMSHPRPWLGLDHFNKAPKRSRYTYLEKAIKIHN

| IC50 [1] [µM] | IC50 [2] [µM] | SMILES |
| --- | --- | --- |
| < 0.1 | 0.079 | C[C@@]1(C(=O)N2CCC(O)(Cn3cnc4c(cc(Cl)n4-c4ccc([C@H]5COCCN5)cc4)c3=O)CC2)C[C@H]1C(F)(F)F (single isomer, unassigned) [Example 110, 6-Chloro-3-((4-hydroxy-1-((1R,2R)-1-methyl-2-(trifluoromethyl)cyclopropane-1-carbonyl)piperidin-4-yl)methyl)-7-(4-((S)-morpholin-3-yl)phenyl)-3,7-dihydro-4H-pyrrolo[2,3-d]pyrimidin-4-one or 6-chloro-3-((4-hydroxy-1-((1R,2R)-1-methyl-2-(trifluoromethyl)cyclopropane-1-carbonyl)piperidin-4-yl)methyl)-7-(4-((R)-morpholin-3-yl)phenyl)-3,7-dihydro-4H-pyrrolo[2,3-d]pyrimidin-4-one] |
| < 0.1 | 0.05 | C[C@H]1CN[C@H](c2ccc(-n3c(Cl)cc4c(=O)n(CC5(O)CCN(C(=O)C6(C)CCC6)CC5)cnc43)cc2)CO1 [Example 102, 6-Chloro-3-((4-hydroxy-1-(1-methylcyclobutane-1-carbonyl)piperidin-4-yl)methyl)-7-(4-((3R,6S)-6-methylmorpholin-3-yl)phenyl)-3,7-dihydro-4H-pyrrolo[2,3-d]pyrimidin-4-one] |
| 0.25 to 2 | 0.379 | C[C@H]1CN[C@H](c2ccc(-n3c(Cl)cc4c(=O)n(CC5(O)CCN(C(=O)c6ccccc6)CC5)cnc43)cc2)CO1 [Example 20, 3-((1-Benzoyl-4-hydroxypiperidin-4-yl)methyl)-6-chloro-7-(4-((3R,6S)-6-methylmorpholin-3-yl)phenyl)-3,7-dihydro-4H-pyrrolo[2,3-d]pyrimidin-4-one] |
| 0.1 to 0.25 | 0.194 | C[C@@H]1COC[C@H](c2ccc(-n3c(Cl)cc4c(=O)n(CC5(O)CCN(C(=O)c6ccc(Cl)cc6)CC5)cnc43)cc2)N1 (single isomer, unassigned) [Example 27] |
| 0.25 to 2 | 0.545 | Cc1ccc(C(=O)N2CCC(O)(Cn3cnc4c(cc(Cl)n4-c4ccc([C@@H]5CO[C@@H](C)CN5)cc4)c3=O)CC2)c(C)c1 [Example 59, 6-Chloro-3-((1-(2,4-dimethylbenzoyl)-4-hydroxypiperidin-4-yl)methyl)-7-(4-((3R,6S)-6-methylmorpholin-3-yl)phenyl)-3,7-dihydro-4H-pyrrolo[2,3-d]pyrimidin-4-one] |
| < 0.1 | 0.015 | O=C(C[C@H](c1ccccc1)C(F)(F)F)N1CCC(O)(Cn2cnc3c(cc(Cl)n3-c3ccc([C@@H]4COCCN4)cc3)c2=O)CC1 (single isomer, unassigned) [Example 81] |
| 0.1 to 0.25 | 0.175 | C[C@H]1CN[C@H](c2ccc(-n3ccc4c(=O)n(CC5(O)CCN(C(=O)c6ccc(Cl)cc6)CC5)cnc43)cc2)CO1 (racemic) [Example 17, rac-3-((1-(4-Chlorobenzoyl)-4-hydroxypiperidin-4-yl)methyl)-7-(4-((3R,6S)-6-methylmorpholin-3-yl)phenyl)-3,7-dihydro-4H-pyrrolo[2,3-d]pyrimidin-4-one] |
| < 0.1 | 0.018 | Cc1cc(-n2c(Cl)cc3c(=O)n(CC4(O)CCN(C(=O)C5(C)CC5)CC4)cnc32)ccc1[C@H]1COCCN1 (single isomer, unassigned) [Example 73] |
| < 0.1 | 0.094 | CC1(C(=O)N2CCC(O)(Cn3cnc4c(cc(Cl)n4-c4ccc([C@H]5CO[C@H](C6CC6)CN5)cc4)c3=O)CC2)CC1 [Example 104, 6-Chloro-7-(4-((3S,6R)-6-cyclopropylmorpholin-3-yl)phenyl)-3-((4-hydroxy-1-(1-methylcyclopropane-1-carbonyl)piperidin-4-yl)methyl)-3,7-dihydro-4H-pyrrolo[2,3-d]pyrimidin-4-one] |
| < 0.1 | 0.088 | CC1(C)CN[C@H](c2ccc(-n3c(Cl)cc4c(=O)n(CC5(O)CCN(C(=O)c6ccc(Cl)cc6)CC5)cnc43)cc2)CO1 (single isomer, unassigned) [Example 34] |
| 0.1 to 0.25 | 0.128 | O=C(c1ccc(Cl)cc1)N1CCC(O)(Cn2cnc3c(cc(Cl)n3-c3ccc([C@H]4CO[C@H](C5CC5)CN4)cc3)c2=O)CC1 (single isomer, unassigned) [Example 61] |
| 0.25 to 2 | 0.254 | C[C@H]1CN[C@H](c2ccc(-n3c(Cl)cc4c(=O)n(CC5(O)CCN(C(=O)c6ccc(F)c(F)c6)CC5)cnc43)cc2)CO1 [Example 37, 6-Chloro-3-((1-(3,4-difluorobenzoyl)-4-hydroxypiperidin-4-yl)methyl)-7-(4-((3R,6S)-6-methylmorpholin-3-yl)phenyl)-3,7-dihydro-4H-pyrrolo[2,3-d]pyrimidin-4-one] |
| 0.25 to 2 | 0.263 | C[C@H]1CN[C@H](c2ccc(-n3c(Cl)cc4c(=O)n(CC5(O)CCN(C(=O)C(C6CC6)C6CC6)CC5)cnc43)cc2)CO1 [Example 99, 6-Chloro-3-((1-(2,2-dicyclopropylacetyl)-4-hydroxypiperidin-4-yl)methyl)-7-(4-((3R,6S)-6-methylmorpholin-3-yl)phenyl)-3,7-dihydro-4H-pyrrolo[2,3-d]pyrimidin-4-one] |
| < 0.1 | 0.017 | CC1(C)CN[C@@H](c2ccc(-n3c(Cl)cc4c(=O)n(CC5(O)CCN(C(=O)C[C@H](c6ccccc6)C(F)(F)F)CC5)cnc43)cc2)CO1 (mixture of isomers) [Example 10, 6-Chloro-7-(4-((S)-6,6-dimethylmorpholin-3-yl)phenyl)-3-((4-hydroxy-1-((R)-4,4,4-trifluoro-3-phenylbutanoyl)piperidin-4-yl)methyl)-3,7-dihydro-4H-pyrrolo[2,3-d]pyrimidin-4-one and 6-chloro-7-(4-((R)-6,6-dimethylmorpholin-3-yl)phenyl)-3-((4-hydroxy-1-((R)-4,4,4-trifluoro-3-phenylbutanoyl)piperidin-4-yl)methyl)-3,7-dihydro-4H-pyrrolo[2,3-d]pyrimidin-4-one] |
| 0.1 to 0.25 | 0.121 | CC[C@H]1CN[C@H](c2ccc(-n3c(Cl)cc4c(=O)n(CC5(O)CCN(C(=O)C6(C)CC6)CC5)cnc43)cc2)CO1 [Example 106, 6-Chloro-7-(4-((3R,6S)-6-ethylmorpholin-3-yl)phenyl)-3-((4-hydroxy-1-(1-methylcyclopropane-1-carbonyl)piperidin-4-yl)methyl)-3,7-dihydro-4H-pyrrolo[2,3-d]pyrimidin-4-one] |
| 0.1 to 0.25 | 0.162 | CC[C@H]1CN[C@H](c2ccc(-n3c(Cl)cc4c(=O)n(CC5(O)CCN(C(=O)c6ccc(Cl)cc6)CC5)cnc43)cc2)CO1 [Example 46, 6-Chloro-3-((1-(4-chlorobenzoyl)-4-hydroxypiperidin-4-yl)methyl)-7-(4-((3R,6S)-6-ethylmorpholin-3-yl)phenyl)-3,7-dihydro-4H-pyrrolo[2,3-d]pyrimidin-4-one] |
| < 0.1 | 0.057 | C[C@H]1CN[C@H](c2ccc(-n3c(Cl)cc4c(=O)n(CC5(O)CCN(C(=O)C6(C)CC6)CC5)cnc43)cc2)CO1 [Example 101, 6-Chloro-3-((4-hydroxy-1-(1-methylcyclopropane-1-carbonyl)piperidin-4-yl)methyl)-7-(4-((3R,6S)-6-methylmorpholin-3-yl)phenyl)-3,7-dihydro-4H-pyrrolo[2,3-d]pyrimidin-4-one] |
| < 0.1 | 0.016 | O=C(C[C@H](c1ccccc1)C(F)(F)F)N1CCC(O)(Cn2cnc3c(cc(Cl)n3-c3ccc([C@H]4COCCN4)cc3)c2=O)CC1 (single isomer, unassigned) [Example 78] |
| 0.25 to 2 | 0.313 | O=C(c1ccc(Cl)cc1)N1CCC(O)(Cn2cnc3c(cc(Cl)n3-c3ccc(C4COC5CC5N4)cc3)c2=O)CC1 (stereo not shown) [Example 60, 7-(4-(2-Oxa-5-azabicyclo[4.1.0]heptan-4-yl)phenyl)-6-chloro-3-((1-(4-chlorobenzoyl)-4-hydroxypiperidin-4-yl)methyl)-3,7-dihydro-4H-pyrrolo[2,3-d]pyrimidin-4-one] |
| < 0.1 | 0.093 | C[C@@H]1CN[C@@H](c2ccc(-n3c(Cl)cc4c(=O)n(CC5(O)CCN(C(=O)C6(C)CC6)CC5)cnc43)cc2)CO1 [Example 107, 6-Chloro-3-((4-hydroxy-1-(1-methylcyclopropane-1-carbonyl)piperidin-4-yl)methyl)-7-(4-((3S,6R)-6-methylmorpholin-3-yl)phenyl)-3,7-dihydro-4H-pyrrolo[2,3-d]pyrimidin-4-one] |
| 0.1 to 0.25 | 0.16 | Cc1cc(-n2c(Cl)cc3c(=O)n(CC4(O)CCN(C(=O)c5ccc(C6CC6)cc5)CC4)cnc32)ccc1[C@H]1CO[C@H](C)CN1 [Example 93, 6-Chloro-3-((1-(4-cyclopropylbenzoyl)-4-hydroxypiperidin-4-yl)methyl)-7-(3-methyl-4-((3S,6R)-6-methylmorpholin-3-yl)phenyl)-3,7-dihydro-4H-pyrrolo[2,3-d]pyrimidin-4-one] |
| 0.1 to 0.25 | 0.211 | CC1(C(=O)N2CCC(O)(Cn3cnc4c(cc(Cl)n4-c4ccc(C5COCCN5)c(F)c4)c3=O)CC2)CC1 (stereo not shown) [Example 72, 6-Chloro-7-(3-fluoro-4-(morpholin-3-yl)phenyl)-3-((4-hydroxy-1-(1-methylcyclopropane-1-carbonyl)piperidin-4-yl)methyl)-3,7-dihydro-4H-pyrrolo[2,3-d]pyrimidin-4-one] |

| SMILES | IC50 [1] [µM] | IC50 [2] [µM] |
| --- | --- | --- |
| O=C(C[C@H](c1ccccc1)C(F)(F)F)N1CCC(O)(Cn2cnc3c(cc(Cl)n3-c3ccc([C@H]4COCCN4)c(C(F)(F)F)c3)c2=O)CC1 (mixture of isomers) [Example 87, 6-Chloro-3-((4-hydroxy-1-((R)-4,4,4-trifluoro-3-phenylbutanoyl)piperidin-4-yl)methyl)-7-(4-((S)-morpholin-3-yl)-3-(trifluoromethyl)phenyl)-3,7-dihydro-4H-pyrrolo[2,3-d]pyrimidin-4-one and 6-chloro-3-((4-hydroxy-1-((R)-4,4,4-trifluoro-3-phenylbutanoyl)piperidin-4-yl)methyl)-7-(4-((R)-morpholin-3-yl)-3-(trifluoromethyl)phenyl)-3,7-dihydro-4H-pyrrolo[2,3-d]pyrimidin-4-one (1:1)] | 0.25 to 2 | 0.292 |
